Assay results taken from US20240166690A1, “MULTI-TARGET CY[…] FOR OPIOID/NEUROPEPTIDE FF RECEPTORS, AND PREPARATION THEREFOR AND APPLICATION THEREOF” (SHANGHAI TIANCI LIFE SCIENCE DEVELOPMENT CO., LTD., priority 2021, published 2024).
Bridge positions count the residues as written; N and C are the ends. Square brackets hold non-standard residues; d marks the D form. Ends that are not written are not given here. Peptide text beside a SMILES is read from it. NMeF = CN[C@@H](Cc1ccccc1)C(=O)O; dDab = NCC[C@@H](N)C(=O)O; dDap = NC[C@@H](N)C(=O)O

How the values were obtained:
[1] = molecular target: T1, Mu-opioid receptor (Homo sapiens, UniProt P35372); experiment: cAMP functional experiment, Mu-opioid receptor (forskolin-induced cAMP accumulation); type: cell-based
T1 construct: expressed in transfected cells; host or cells: HEK293
Description: (§1) The agonistic activity of the cyclopeptide molecule of the present invention against Mu-opioid receptor, Delta-opioid receptor, Kappa-opioid receptor, NPFF1 receptor and NPFF2 receptor was evaluated by detecting the regulation of the cyclopeptide molecule of the present invention on the intracellular accumulation of cyclic adenosine monophosphate (cAMP) induced by Forskolin in HEK293 cells stably expressing these five receptors. The experimental method was: the cells were seeded in 24 well plates with 120000 cells per well, and were cultured for more than 20 hours. At the beginning of the experiment, the culture medium in the culture dish was suck out, and then 500 μL of preheated serum-free medium containing 1 mM of IBMX was added, the mixture was incubated at 37° C. for 10 minutes. Then each 10 μL of the drug to be tested and 10 μM of forskolin (final concentration) were added to each well. The mixture was incubated at 37° C. for 30 minutes. After incubation, all the liquid was suck out from the culture dish, 500 μL of 0.2 N hydrochloric acid was added to each well, the mixture was incubated at room temperature for 30 minutes to promote cell lysis. After lysis was complete, NaOH was added to neutralize the hydrochloric acid solution used for lysis. Then all the liquid was suck out from the culture dish into centrifuge tubes, the liquid was centrifuged at 12000 rpm for 2 minutes. 50 μL was taken to a clean centrifuge tube, 100 μL of 60 μg/μL PKA was added, and 100 μL of TE cAMP buffer was added to the blank control group (B). Another 50 μL of 0.5 μ Ci[^3H]cAMP was added to each of the above centrifuge tubes, the mixture was quickly mixed and incubated at 4° C. for more than 2 hours. After incubation, another 100 μL of activated carbon suspension was added to each tube, the mixture was vortex agitated evenly, placed in an ice bath for 1 minute, centrifuged at 5000 rpm for 4 minutes. 200 μL of supernatant after centrifugation in each tube was suck out to a 24 well plate, with an additional 700 μL of scintillator liquid added per well, then the 24 well plate was sealed with adhesive film, placed for 3 hours, then placed on the scintillation instrument for measurement.
(§2) The inhibitory effect of cAMP was represented by the percentage (% control) of drug inhibition of intracellular cAMP accumulation induced by Forskolin, wherein % control=(cAMP content when treated with Forskolin−cAMP content when Forskolin co-treated with the test drug)/(cAMP content when treated with Forskolin−cAMP content when treated with solvent). The related % control data was represented by mean±S.E.M. The dose-effect relationship of the drug was statistically analyzed using a nonlinear regression model, and the IC50 values of the multi-target cyclopeptide molecule on inhibition of Forskolin induced intracellular cAMP accumulation were calculated using the statistical software GraphPad Prism version 5.0.

[2] = molecular target: T2, Kappa-opioid receptor (Homo sapiens, UniProt P41145); experiment: cAMP functional experiment, Kappa-opioid receptor (forskolin-induced cAMP accumulation); type: cell-based
T2 construct: expressed in transfected cells; host or cells: HEK293
Description: as §1, §2

[3] = molecular target: T3, Delta-opioid receptor (Homo sapiens, UniProt P41143); experiment: cAMP functional experiment, Delta-opioid receptor (forskolin-induced cAMP accumulation); type: cell-based
T3 construct: expressed in transfected cells; host or cells: HEK293
Description: as §1, §2

[4] = molecular target: T4, NPFF1 receptor (Homo sapiens, UniProt Q9GZQ6); experiment: cAMP functional experiment, NPFF1 receptor (forskolin-induced cAMP accumulation); type: cell-based
T4 construct: expressed in transfected cells; host or cells: HEK293
Description: as §1, §2

[5] = molecular target: T5, NPFF2 receptor (Homo sapiens, UniProt Q9Y5X5); experiment: cAMP functional experiment, NPFF2 receptor (forskolin-induced cAMP accumulation); type: cell-based
T5 construct: expressed in transfected cells; host or cells: HEK293
Description: as §1, §2

[6] = test system: Kunming male mice; experiment: Photothermal tail flick experiment, subcutaneous injection; type: in vivo; settings: for ED50 value (95% confidence interval), analgesic activity: photothermal tail flick
Description: (§3) Two administration methods were used: peripheral subcutaneous administration and oral administration. Subsequently, the analgesic activity of the drug was studied using an acute pain model of photothermal tail flick in mice.
Subcutaneous administration on the back was chosen for subcutaneous administration (s.c.). A sterile 1 mL syringe was used and the drug with the volume of 0.1 mL/10 g was injected for administration. The back skin was grasped with the right hand, the needle was tilted in, and the drug was injected subcutaneously into the mouse's back. After the needle was inserted, shook it left and right, and observe to confirm that the needle had indeed entered the subcutaneous area to prevent the needle from puncturing the skin and leaking the drug.
(§4) The photothermal tail flick experiment is based on the experimental method summarized by D'Amour and Smith to optimize the experimental parameters. The experiment selected Kunming male mice with body weigh 21±2 g, and ambient temperature controlled at 22±2° C. The experimental mice were allowed to drink water freely and were moved from the breeding room to the experimental area for adaptation for 30 minutes before starting the experiment. Then the mice were grab with the right hand and the tail hang freely. Then the mice's tail were placed on a radiation light source, 2-3 mm away from the mice tail. The intensity of radiation heat was adjusted to the tail flick time of mice being 3-5 s, which is the basic pain threshold of photothermal tail flick. The irradiation time of the mice tail should not exceed 10 s to prevent scalding of the mice tail, which was the maximum latency for photothermal tail flick. After administration, time points of 10, 20, 30, 45, 60, 90, 120, 180, 240, 300, 360, and 420 minutes were selected to measure the tail flick latency of mice after administration.
(§5) The analgesic effect of drugs was generally evaluated using the maximum analgesic effect MPE (%), MPE (%)=100×[(pain threshold after administration−basic pain threshold)/(10 seconds−basic pain threshold)]. 50% effective dose (ED50) refers to the corresponding drug dose that causes a 50% effect. ED50 and 95% confidence interval were calculated using MPE (%) and the drug concentration that achieves the maximum analgesic effect MPE (%) by the statistical software GraphPad Prism 5.0. The difference in analgesic effects was statistically analyzed using one-way ANOVA (Dunnett test), *P<0.05, **P<0.01, and ***P<0.001 indicated significance of the difference between the group with only drug injected and the saline group.

[7] = test system: Kunming male mice; experiment: Photothermal tail flick experiment, oral administration; type: in vivo; settings: tail flick; for Maximum analgesic time: oral administration at the maximum analgesic dose
Description: as §3
1 mL sterile syringe was used for oral administration (p.o.), the pinhead was replaced with a mouse gastric lavage needle, and […] of the drug was orally administered. The skin on the neck and back of the mouse was grasped with the left hand with the abdomen facing upwards. Noted that the mouse's entire body was fixed to vertical, which was beneficial for oral gavage. A gastric lavage needle (No. 12 needle and 1 mL syringe) was held in the right hand and was inserted to the esophagus along the upper jaw which is pressed the tongue tightly from the corner of the mouse's mouth. Gastric lavage fluid can be injected when the needle inserted 2.5 cm. The inserting length of the needle should be determined through practice in advance, as there is a sense of falling into a hole after the needle is inserted. If the injection position was appropriate, it should be very smooth. […] This can cause immediate death of the mouse after gavage.
as §4, §5

T5 sequence (Q9Y5X5 whole entry): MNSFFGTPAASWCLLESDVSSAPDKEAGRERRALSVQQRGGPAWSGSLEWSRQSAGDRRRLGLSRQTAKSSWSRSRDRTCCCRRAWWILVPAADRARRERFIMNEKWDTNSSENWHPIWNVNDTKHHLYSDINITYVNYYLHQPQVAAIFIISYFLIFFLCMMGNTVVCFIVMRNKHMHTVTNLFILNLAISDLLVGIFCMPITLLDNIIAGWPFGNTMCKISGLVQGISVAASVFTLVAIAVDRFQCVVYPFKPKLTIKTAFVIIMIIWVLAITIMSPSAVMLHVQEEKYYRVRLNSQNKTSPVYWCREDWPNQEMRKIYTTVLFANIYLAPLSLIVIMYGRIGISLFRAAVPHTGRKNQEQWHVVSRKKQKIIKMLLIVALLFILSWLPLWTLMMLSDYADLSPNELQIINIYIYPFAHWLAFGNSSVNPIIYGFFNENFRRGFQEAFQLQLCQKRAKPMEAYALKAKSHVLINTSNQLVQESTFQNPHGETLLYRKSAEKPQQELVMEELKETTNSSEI
T2 sequence (P41145 whole entry): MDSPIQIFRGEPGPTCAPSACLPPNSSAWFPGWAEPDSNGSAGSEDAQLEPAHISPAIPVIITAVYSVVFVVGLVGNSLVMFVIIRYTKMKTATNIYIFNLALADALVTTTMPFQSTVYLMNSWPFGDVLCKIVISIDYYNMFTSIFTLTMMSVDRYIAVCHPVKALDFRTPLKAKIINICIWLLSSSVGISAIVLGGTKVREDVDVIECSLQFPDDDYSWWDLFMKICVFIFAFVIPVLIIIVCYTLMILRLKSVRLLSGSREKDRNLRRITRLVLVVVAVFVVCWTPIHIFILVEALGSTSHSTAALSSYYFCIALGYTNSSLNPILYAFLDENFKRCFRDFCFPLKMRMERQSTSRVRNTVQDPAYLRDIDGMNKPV
T1 sequence (P35372 whole entry): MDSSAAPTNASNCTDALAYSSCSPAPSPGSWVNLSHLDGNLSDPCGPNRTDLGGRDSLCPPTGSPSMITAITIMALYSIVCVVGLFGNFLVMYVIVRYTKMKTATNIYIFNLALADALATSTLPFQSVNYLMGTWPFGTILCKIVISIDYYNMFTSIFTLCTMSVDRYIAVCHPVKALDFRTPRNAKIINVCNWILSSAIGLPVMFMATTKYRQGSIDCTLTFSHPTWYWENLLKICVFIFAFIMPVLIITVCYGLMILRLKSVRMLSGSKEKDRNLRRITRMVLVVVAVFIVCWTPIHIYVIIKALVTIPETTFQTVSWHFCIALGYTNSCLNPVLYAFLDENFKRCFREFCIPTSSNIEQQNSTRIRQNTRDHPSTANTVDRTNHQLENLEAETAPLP
T4 sequence (Q9GZQ6 whole entry): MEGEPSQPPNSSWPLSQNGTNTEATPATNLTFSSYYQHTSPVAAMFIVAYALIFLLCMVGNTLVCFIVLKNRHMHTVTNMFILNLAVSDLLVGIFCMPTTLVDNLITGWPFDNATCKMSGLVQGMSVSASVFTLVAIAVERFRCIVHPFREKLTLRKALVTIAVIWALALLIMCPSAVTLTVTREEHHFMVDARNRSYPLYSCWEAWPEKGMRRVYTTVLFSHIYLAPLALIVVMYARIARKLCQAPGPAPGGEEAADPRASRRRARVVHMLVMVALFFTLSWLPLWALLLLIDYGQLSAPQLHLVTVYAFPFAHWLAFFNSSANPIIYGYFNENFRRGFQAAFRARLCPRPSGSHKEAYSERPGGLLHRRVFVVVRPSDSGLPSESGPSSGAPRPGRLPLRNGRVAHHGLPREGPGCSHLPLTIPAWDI
T3 sequence (P41143 whole entry): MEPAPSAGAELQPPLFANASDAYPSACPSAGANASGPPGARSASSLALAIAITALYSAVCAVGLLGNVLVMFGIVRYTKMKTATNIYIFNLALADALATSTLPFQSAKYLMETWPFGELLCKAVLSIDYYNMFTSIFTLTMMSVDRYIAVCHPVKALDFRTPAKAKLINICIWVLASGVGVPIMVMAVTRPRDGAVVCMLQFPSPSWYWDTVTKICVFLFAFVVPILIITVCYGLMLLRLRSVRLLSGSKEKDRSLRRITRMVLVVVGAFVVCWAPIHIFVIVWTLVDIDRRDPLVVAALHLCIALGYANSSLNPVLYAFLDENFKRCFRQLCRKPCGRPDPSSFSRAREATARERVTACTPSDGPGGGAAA

Row | Compound | IC50 [1] [µM] | IC50 [2] [µM] | IC50 [3] [µM] | IC50 [4] [µM] | IC50 [5] [µM] | ED50 value (95% confidence interval), analgesic activity [6] | Maximum analgesic time [7] [min] | analgesic duration ([7]; oral administration) [min] | effective analgesic actuation duration ([6]; tail flick) [min] | oral analgesic activity ([7]; oral administration)
1 | CN1C(=O)CNC(=O)[C@H](NC(=O)[C@@H](N)Cc2ccc(O)cc2)CCNC(=O)C[C@@H](C(=O)N2CCC[C@H]2C(=O)N[C@@H](CCC(N)=O)C(=O)N[C@@H](CCCNC(=N)N)C(=O)N[C@@H](Cc2ccccc2)C(N)=O)NC(=O)[C@@H]1Cc1ccccc1 [Compound 9, Tyr-c^[2,5][D-Dab-Gly-NMe-Phe-Asp]-Pro-Gln-Arg-Phe-NH2] (H-Y[dDab]G[NMeF]DPQRF-NH2; lactam 2-5) | 0.0379 | 0.0712 | 0.0951 | 0.18 | 0.265 | 16.0 (14.4 to 17.6) μg/kg | 30 | 240 |  | 
2 | CN1C(=O)CNC(=O)[C@H](NC(=O)[C@@H](N)Cc2ccc(O)cc2)CCCCNC(=O)CC[C@@H](C(=O)N2CCC[C@H]2C(=O)N[C@@H](CCC(N)=O)C(=O)N[C@@H](CCCNC(=N)N)C(=O)N[C@@H](Cc2ccccc2)C(N)=O)NC(=O)[C@@H]1Cc1ccccc1 [Compound 2, Tyr-c^[2,5][D-Lys-Gly-NMe-Phe-Glu]-Pro-Gln-Arg-Phe-NH2] (H-Y[dK]G[NMeF]EPQRF-NH2; lactam 2-5) | 0.0488 | 0.0295 | 0.0364 | 0.189 | 0.0831 | 17.9 (15.3 to 20.9) μg/kg | 30 | 240 |  | 
3 | CN1C(=O)CNC(=O)[C@H](NC(=O)[C@@H](N)Cc2ccc(O)cc2)CNC(=O)C[C@@H](C(=O)N2CCC[C@H]2C(=O)N[C@@H](CCC(N)=O)C(=O)N[C@@H](CCCNC(=N)N)C(=O)N[C@@H](Cc2ccccc2)C(N)=O)NC(=O)[C@@H]1Cc1ccccc1 [Compound 10, Tyr-c^[2,5][D-Dap-Gly-NMe-Phe-Asp]-Pro-Gln-Arg-Phe-NH2] (H-Y[dDap]G[NMeF]DPQRF-NH2; lactam 2-5) | 0.238 | 0.136 | 0.374 | 0.0901 | 0.349 | 15.0 (13.6 to 16.5) μg/kg | 30 | 240 |  | 
4 | CN1C(=O)CNC(=O)[C@@H](NC(=O)[C@@H](N)Cc2ccc(O)cc2)CCCCNC(=O)C[C@@H](C(=O)N2CCC[C@H]2C(=O)N[C@@H](CCC(N)=O)C(=O)N[C@@H](CCCNC(=N)N)C(=O)N[C@@H](Cc2ccccc2)C(N)=O)NC(=O)[C@@H]1Cc1ccccc1 [Compound 3, Tyr-c^[2,5][Lys-Gly-NMe-Phe-Asp]-Pro-Gln-Arg-Phe-NH2] (H-YKG[NMeF]DPQRF-NH2; lactam 2-5) | 0.0707 | 0.32 | 0.0282 | 0.0289 | 0.112 | 25.4 (22.1 to 29.2) μg/kg | 20 | 240 |  | 
5 | CN1C(=O)CNC(=O)[C@H](NC(=O)[C@@H](N)Cc2ccc(O)cc2)CCCCNC(=O)C[C@@H](C(=O)NCC(=O)N[C@@H](CCC(N)=O)C(=O)N[C@@H](CCCNC(=N)N)C(=O)N[C@@H](Cc2ccccc2)C(N)=O)NC(=O)[C@@H]1Cc1ccccc1 [Compound 12, Tyr-c^[2,5][D-Lys-Gly-NMe-Phe-Asp]-Gly-Gln-Arg-Phe-NH2] (H-Y[dK]G[NMeF]DGQRF-NH2; lactam 2-5) | 0.0826 | 0.0974 | 0.0452 | 0.0586 | 0.093 |  | 20 | 240 |  | 
6 | CN1C(=O)CNC(=O)[C@H](NC(=O)[C@@H](N)Cc2ccc(O)cc2)CCCCNC(=O)C[C@H](C(=O)N2CCC[C@H]2C(=O)N[C@@H](CCC(N)=O)C(=O)N[C@@H](CCCNC(=N)N)C(=O)N[C@@H](Cc2ccccc2)C(N)=O)NC(=O)[C@@H]1Cc1ccccc1 [Compound 5, Tyr-c^[2,5][D-Lys-Gly-NMe-Phe-D-Asp]-Pro-Gln-Arg-Phe-NH2] (H-Y[dK]G[NMeF][dD]PQRF-NH2; lactam 2-5) | 0.586 |  | 0.345 | 0.528 | 0.19 | 23.2 (19.1 to 28.2) μg/kg | 20 | 240 |  | 
7 | CN1C(=O)CNC(=O)[C@@H](NC(=O)[C@@H](N)Cc2ccc(O)cc2)CCCCNC(=O)C[C@H](C(=O)N2CCC[C@H]2C(=O)N[C@@H](CCC(N)=O)C(=O)N[C@@H](CCCNC(=N)N)C(=O)N[C@@H](Cc2ccccc2)C(N)=O)NC(=O)[C@@H]1Cc1ccccc1 [Compound 4, Tyr-c^[2,5][Lys-Gly-NMe-Phe-D-Asp]-Pro-Gln-Arg-Phe-NH2] (H-YKG[NMeF][dD]PQRF-NH2; lactam 2-5) | 0.166 |  | 0.923 | 0.104 | 0.0815 | 30.3 (19.4 to 47.1) μg/kg | 20 | 240 |  | 
8 | CN1C(=O)CNC(=O)[C@H](NC(=O)[C@@H](N)Cc2ccc(O)cc2)CC(=O)NCCCC[C@@H](C(=O)N2CCC[C@H]2C(=O)N[C@@H](CCC(N)=O)C(=O)N[C@@H](CCCNC(=N)N)C(=O)N[C@@H](Cc2ccccc2)C(N)=O)NC(=O)[C@@H]1Cc1ccccc1 [Compound 6, Tyr-c^[2,5][D-Asp-Gly-NMe-Phe-Lys]-Pro-Gln-Arg-Phe-NH2] (H-Y[dD]G[NMeF]KPQRF-NH2; lactam 2-5) | 0.0663 | 0.058 | 0.0742 | 0.222 | 0.303 | 15.8 (14.6 to 17.1) μg/kg | 30 | 240 |  | 
9 | Tyr-D-Ala-Gly-NMe-Phe-Gly-Pro-Gln-Arg-Phe-NH2 (Y[dA]G[NMeF]GPQRF-NH2) [DN-9, multi-target parent peptide for opioid receptor/neuropeptide FF receptors, chemical template, reference compound] |  |  |  |  |  | 228 µg/kg | 20 | 90 | 90 | only produces strong analgesic activity at a high-dose of 40 mg/kg
